Data: ChEMBL document CHEMBL1201862, “PubChem BioAssay data set” (2004)
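Method: 48-hour compound exposure of cells in 96-well plates, five concentrations, linear interpolation of endpoints. GI50: concentration for 50% inhibition of growth.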 Calls of active or inactive are those of the source. Rule as the data show it: active = GI50 up to about 1.1 µM and inactive = higher.

Experiments:
Assay in all cases: inhibition of tumour cell growth, NCI panel, 48 h
NCI/ADR-RES = system: NCI/ADR-RES
KM12 = system: KM12
DU-145 = system: DU-145
OVCAR-5 = system: OVCAR-5
SNB-75 = system: SNB-75
SK-MEL-2 = system: SK-MEL-2
OVCAR-8 = system: OVCAR-8
IGROV-1 = system: IGROV-1
PC-3 = system: PC-3
HOP-62 = system: HOP-62
SN12C = system: SN12C
Malme-3M = system: Malme-3M
SK-MEL-28 = system: SK-MEL-28
OVCAR-3 = system: OVCAR-3
MCF7 = system: MCF7
HCC 2998 = system: HCC 2998
NCI-H23 = system: NCI-H23
LOX IMVI = system: LOX IMVI
OVCAR-4 = system: OVCAR-4
HCT-116 = system: HCT-116

Measured: GI50

CCO/C=N\C1=C(C#N)SC2=N/C(=C\c3ccco3)C(=O)N21
inactive: NCI/ADR-RES > 100 µM | KM12 > 100 µM | DU-145 > 100 µM | OVCAR-5 > 100 µM | SNB-75 > 100 µM | SK-MEL-2 > 100 µM | OVCAR-8 > 100 µM | IGROV-1 > 100 µM | PC-3 > 100 µM | HOP-62 > 100 µM | SN12C > 100 µM | Malme-3M > 100 µM | SK-MEL-28 > 100 µM | OVCAR-3 > 100 µM | MCF7 > 100 µM | HCC 2998 > 100 µM | NCI-H23 > 100 µM | LOX IMVI > 100 µM | OVCAR-4 > 100 µM | HCT-116 > 100 µM

Cc1sc2nc(N(C)C)oc(=O)c2c1C
inactive: NCI/ADR-RES 70 µM | KM12 > 100 µM | DU-145 > 100 µM | OVCAR-5 > 100 µM | SNB-75 34.5 µM | SK-MEL-2 > 100 µM | OVCAR-8 73.5 µM | IGROV-1 > 100 µM | PC-3 63.1 µM | HOP-62 51.5 µM | SN12C 86.1 µM | Malme-3M > 100 µM | SK-MEL-28 > 100 µM | MCF7 > 100 µM | HCC 2998 > 100 µM | NCI-H23 > 100 µM | LOX IMVI > 100 µM | OVCAR-4 > 100 µM | HCT-116 > 100 µM

CCOC(=O)c1c(C)noc1/N=N/N(CCO)CCO
inactive: NCI/ADR-RES 35.4 µM | KM12 36.6 µM | DU-145 49.7 µM | OVCAR-5 > 100 µM | SNB-75 10.2 µM | OVCAR-8 38.3 µM | IGROV-1 36.6 µM | PC-3 31.8 µM | HOP-62 32.6 µM | SN12C 37.5 µM | Malme-3M 45.1 µM | SK-MEL-28 49.1 µM | OVCAR-3 19.7 µM | MCF7 29.1 µM | HCC 2998 22.3 µM | NCI-H23 30.3 µM | LOX IMVI 32.4 µM | OVCAR-4 30.2 µM | HCT-116 28.7 µM

C=C=C(CC1CCCCC1=O)S(=O)(=O)c1ccccc1 (centres undefined)
inactive: NCI/ADR-RES > 10 µM | DU-145 > 7.13 µM | OVCAR-5 > 10 µM | SNB-75 > 6.04 µM | SK-MEL-2 > 10 µM | OVCAR-8 > 9.46 µM | IGROV-1 > 10 µM | PC-3 > 10 µM | HOP-62 > 10 µM | SN12C 7.41 µM | Malme-3M > 10 µM | SK-MEL-28 > 10 µM | OVCAR-3 > 10 µM | MCF7 3.23 µM | HCC 2998 > 8.71 µM | NCI-H23 5.13 µM | LOX IMVI > 4.78 µM | OVCAR-4 > 10 µM | HCT-116 2.65 µM

COc1ccc(-c2[nH]c3c4c(nc5c(c24)C(=O)CC(C)(C)C5)CC(C)(C)C3)cc1
inactive: NCI/ADR-RES 48.8 µM | KM12 40.4 µM | DU-145 > 100 µM | OVCAR-5 > 100 µM | SNB-75 34.4 µM | SK-MEL-2 39.7 µM | OVCAR-8 52.6 µM | PC-3 24.3 µM | HOP-62 > 100 µM | SN12C 38.9 µM | Malme-3M > 100 µM | SK-MEL-28 > 100 µM | OVCAR-3 47.3 µM | MCF7 58.3 µM | HCC 2998 55.6 µM | NCI-H23 76.2 µM | LOX IMVI 68.7 µM | OVCAR-4 68.5 µM | HCT-116 70 µM

Nc1nc(Nc2ccc(Cl)cc2)sc1C(=O)c1c[nH]c2ccccc12
inactive: NCI/ADR-RES 12.4 µM | KM12 14 µM | DU-145 14.2 µM | OVCAR-5 21.1 µM | SNB-75 5.66 µM | SK-MEL-2 14.6 µM | IGROV-1 17.3 µM | PC-3 14 µM | HOP-62 21 µM | SN12C 15.5 µM | Malme-3M 16.4 µM | SK-MEL-28 15.4 µM | OVCAR-3 13.8 µM | MCF7 13.8 µM | HCC 2998 11.3 µM | NCI-H23 13.4 µM | LOX IMVI 18.2 µM | OVCAR-4 14.7 µM | HCT-116 11.1 µM

COC(=O)/C=C(\C(=O)OC)c1cc(C)c2cc(C(C)C)ccc(C)c1-2
inactive: NCI/ADR-RES 32 µM | KM12 37.4 µM | DU-145 60.3 µM | OVCAR-5 > 100 µM | SK-MEL-2 34.8 µM | OVCAR-8 55.1 µM | IGROV-1 85.9 µM | PC-3 29 µM | HOP-62 34.8 µM | SN12C 53.3 µM | Malme-3M 38.5 µM | SK-MEL-28 > 100 µM | OVCAR-3 49.4 µM | MCF7 24.9 µM | HCC 2998 28 µM | NCI-H23 31.8 µM | LOX IMVI 45.2 µM | OVCAR-4 88.3 µM | HCT-116 34 µM

COC(=O)/C(C#N)=C(/NCc1ccccc1)Nc1ccccc1
inactive: NCI/ADR-RES 51.1 µM | DU-145 > 100 µM | OVCAR-5 > 100 µM | SNB-75 37.3 µM | SK-MEL-2 > 100 µM | OVCAR-8 > 100 µM | IGROV-1 > 100 µM | PC-3 46 µM | HOP-62 > 100 µM | SN12C > 100 µM | Malme-3M > 100 µM | SK-MEL-28 > 100 µM | OVCAR-3 72.3 µM | MCF7 > 100 µM | HCC 2998 > 100 µM | NCI-H23 > 100 µM | LOX IMVI 61.2 µM | OVCAR-4 91 µM | HCT-116 63 µM

c1ccc2c(c1)CC1=C(O2)c2ccccc2OC1
inactive: NCI/ADR-RES 36.6 µM | KM12 29.1 µM | DU-145 35.9 µM | OVCAR-5 > 100 µM | SK-MEL-2 23.5 µM | OVCAR-8 35.7 µM | IGROV-1 23.1 µM | PC-3 38.2 µM | HOP-62 74.5 µM | SN12C 19.6 µM | Malme-3M 52.6 µM | OVCAR-3 21.3 µM | MCF7 > 100 µM | HCC 2998 21.8 µM | NCI-H23 40.9 µM | LOX IMVI 17.9 µM | OVCAR-4 21.1 µM | HCT-116 16.4 µM

O=C(O)C1CCCCC1c1c2ccc(=O)cc-2oc2cc(O)ccc12 (centres undefined)
inactive: NCI/ADR-RES 43.9 µM | KM12 19.9 µM | DU-145 26.5 µM | OVCAR-5 29.4 µM | SNB-75 25.1 µM | SK-MEL-2 29.4 µM | OVCAR-8 26.5 µM | IGROV-1 12.9 µM | PC-3 28.8 µM | SN12C 41.7 µM | Malme-3M 29.7 µM | SK-MEL-28 35.6 µM | OVCAR-3 24.4 µM | MCF7 27.6 µM | HCC 2998 31 µM | NCI-H23 29.8 µM | LOX IMVI 28.1 µM | OVCAR-4 23.1 µM | HCT-116 31 µM

CN(C(=O)Cc1ccccc1)n1cnn(CC(=O)OC(C)(C)C)c1=S
inactive: NCI/ADR-RES > 10 µM | KM12 > 10 µM | DU-145 > 10 µM | OVCAR-5 > 10 µM | SNB-75 > 10 µM | OVCAR-8 > 10 µM | IGROV-1 > 10 µM | PC-3 > 10 µM | HOP-62 > 10 µM | SN12C > 10 µM | Malme-3M > 10 µM | SK-MEL-28 > 10 µM | OVCAR-3 > 10 µM | MCF7 > 10 µM | HCC 2998 > 10 µM | NCI-H23 > 10 µM | LOX IMVI > 10 µM | OVCAR-4 > 10 µM | HCT-116 > 10 µM
